Assay: Interconversion tests in acetone (thermodynamic/physical stability of polymorphic forms)
Type: physicochemical
Protocol: To investigate physical stability in comparison with the known forms form I and form II, the following experiments were carried out (interconversion tests): • a) about 100 mg of form I and approx. 100 mg of form II were put in a 20 ml vial and suspended in 2.5 ml acetone p.a. • b) about 100 mg of form V and approx. 100 mg of form I were put in a 20 ml vial and suspended in 2.5 ml acetone p.a. • c) about 100 mg of form V and approx. 100 mg of form II were put in a 20 ml vial and suspended in 2.5 ml acetone p.a.
All three suspensions were first shaken at room temperature (approx. 20° C.) on a PLS synthesizer at 400 rpm for approx. 2 h. For 20 h the temperature of the suspensions was raised to 40° C. and then left to cool to room temperature (approx. 20° C.) again.
Then the solids were filtered with suction on a G4 frit, made into a slurry with 0.5 ml acetone p.a., washed, and then dried by suction in an air stream, applying a light vacuum.
The crystalline solids were in each case characterized by DSC, XRPD, Raman and TG investigations.

Row | Compound | Product (polymorphic form obtained from the starting mixture in the interconversion test) (approx. 100 mg of each form suspended in 2.5 ml acetone, approx. 2 h at room temperature (approx. 20° C.), 20 h at 40° C., cooled to room temperature, solids characterized by DSC, XRPD, Raman, TG) | Relative thermodynamic stability of the forms under the test conditions (interconversion tests in acetone, 20 to 40° C.)
1 | CC[C@H]1OC(=O)[C@H](C)[C@@H](O[C@H]2C[C@@](C)(OC)[C@@H](O)[C@H](C)O2)[C@H](C)[C@@H](O[C@@H]2O[C@H](C)C[C@H](N(C)C)[C@H]2O)[C@](C)(OC)C[C@@H](C)C(=O)[C@H](C)[C@@H](O)[C@]1(C)O [Form I/Form II, clarithromycin] | Form II | 
2 | CC[C@H]1OC(=O)[C@H](C)[C@@H](O[C@H]2C[C@@](C)(OC)[C@@H](O)[C@H](C)O2)[C@H](C)[C@@H](O[C@@H]2O[C@H](C)C[C@H](N(C)C)[C@H]2O)[C@](C)(OC)C[C@@H](C)C(=O)[C@H](C)[C@@H](O)[C@]1(C)O [Form II, clarithromycin] |  | thermodynamically more stable than form V as well as more stable than form I

Source: US20080249035A1, “Polymorph of Clarithromycin (Form V)” (Gruenenthal GmbH, priority 2007, published 2008)
